Ends that are not written are not given here.
Tests used:
[1] = tested on: SB2b cell line; assay: cAMP accumulation, αCGRP and AM, SB2b; format: cell-based, human; settings: 30 min, 3 to 4 independent experiments in triplicate
Method: (§1) Primary patient high-grade glioma (HGG) cell lines, in vitro surrogates of glioblastoma, were developed by QIMR-Berghofer Medical Research Institute (Brisbane, Australia) and represent 3 distinct GBM subtypes: SB2b and PB1 (classical), JK2 (proneural) and WK1(mesenchymal), who supplied these directly for this study. GBM cell lines were cultured as adherent monolayers on matrigel (BD Biosciences)-coated flasks using StemPro NSC SFM serum free cell culture medium (Thermo Fisher Scientific) supplemented with 20 ng/ml EGF and 20 ng/ml FGFb, 1% D-glutamine and 1% of penicillin/ streptomycin (further referred as StemPro complete medium).
GBM cell lines were seeded at 38000 cells/well (SB2b) or 35,000 cells/well (PB1, JK2 and WK1) in 96-well matrigel-coated plates and incubated for 24 h at 37°C, 5% CO2 in humidified incubator in StemPro complete medium. Media was replaced with stimulation buffer (phenol red free F12 media, 0.1% BSA, 0.5 mM IBMX, pH 7.4). […] Cells were lysed (0.3% Tween 20, 5 mM Hepes, 0.1% BSA, pH 7.4) and 5 μl of cell lysate from each well was transferred to a corresponding well of 384-well optiplate. […] Data were analysed by three-parameter logistic curve and are presented as percentage of 10^− 5 M forskolin response.

[2] = tested on: CTR; settings: receptor CTR; ref [10], [11], [38]; cited from earlier work
[3] = tested on: AMY1 (CTR + RAMP1); settings: receptor AMY1, CTR + RAMP1; ref [10], [11], [38]; cited from earlier work
[4] = tested on: AMY3 (CTR + RAMP3); settings: receptor AMY3, CTR + RAMP3; ref [10], [11], [38]; cited from earlier work
[5] = tested on: CGRP (CLR + RAMP1); settings: receptor CGRP, ref [10], [11], [38]; cited from earlier work
[6] = tested on: AM1 (CLR + RAMP2); settings: receptor AM1, CLR + RAMP2; ref [10], [11], [38]; cited from earlier work
[7] = tested on: AM2 (CLR + RAMP3); settings: receptor AM2, CLR + RAMP3; ref [10], [11], [38]; cited from earlier work
[8] = tested on: WK1 cell line; assay: cAMP accumulation, CTR agonists, WK1; format: cell-based, human; settings: 30 min, agonist 10^-12-10^-6 M, 3 to 5 independent experiments in triplicate
Method: as §1, with “medium). Cells were cultured in 5% CO2 / 95% humidified air at 37 °C.” for “medium).”
GBM cell lines were seeded at 38000 cells/well (SB2b) or 35,000 cells/well (PB1, JK2 and WK1) in 96-well matrigel-coated plates and incubated for 24 h at 37°C, 5% CO2 in humidified incubator in StemPro complete medium. Media was replaced with stimulation buffer (phenol red free F12 media, 0.1% BSA, 0.5 mM IBMX, pH 7.4). […] Intracellular cAMP levels in the wells were determined using Lance Ultra cAMP assay kit (Perkin Elmer) according to the manufacturer’s instructions and detected using an Envision multilabel 2103 reader. […] Data were analysed by three-parameter logistic curve and are presented as percentage of 10^− 5 M forskolin response.

[9] = tested on: JK2 cell line; assay: cAMP accumulation, CTR agonists, JK2; format: cell-based, human; settings: 30 min, 3 to 5 independent experiments in triplicate
Method: as §1, with “medium). Cells were cultured in 5% CO2 / 95% humidified air at 37 °C.” for “medium).”
(§2) GBM cell lines were seeded at 38000 cells/well (SB2b) or 35,000 cells/well (PB1, JK2 and WK1) in 96-well matrigel-coated plates and incubated for 24 h at 37°C, 5% CO2 in humidified incubator in StemPro complete medium. Media was replaced with stimulation buffer (phenol red free F12 media, 0.1% BSA, 0.5 mM IBMX, pH 7.4). […] Cells were lysed (0.3% Tween 20, 5 mM Hepes, 0.1% BSA, pH 7.4) and 5 μl of cell lysate from each well was transferred to a corresponding well of 384-well optiplate. Intracellular cAMP levels in the wells were determined using Lance Ultra cAMP assay kit (Perkin Elmer) according to the manufacturer’s instructions and detected using an Envision multilabel 2103 reader. Raw RFU values were converted using a cAMP standard curve to give absolute cAMP concentrations. Data were analysed by three-parameter logistic curve and are presented as percentage of 10^− 5 M forskolin response.

[10] = tested on: PB1 cell line; assay: cAMP accumulation, CTR agonists, PB1; format: cell-based, human; settings: 30 min, 3 to 5 independent experiments in triplicate
Method: as §1, with “medium). Cells were cultured in 5% CO2 / 95% humidified air at 37 °C.” for “medium).”
as §2

[11] = tested on: SB2b cell line; assay: Ca2+ mobilization, SB2b; format: cell-based, human; settings: Fluo4-AM, FlexStation, 37 °C, pH 7.4, peak RFU, ATP 10 μM, ionomycin 1 μM, representative experiment, 3 replicates
Method: (§4) Primary patient high-grade glioma (HGG) cell lines, in vitro surrogates of glioblastoma, were developed by QIMR-Berghofer Medical Research Institute (Brisbane, Australia) and represent 3 distinct GBM subtypes: SB2b and PB1 (classical), JK2 (proneural) and WK1(mesenchymal) [37], who supplied these directly for this study. GBM cell lines were cultured as adherent monolayers on matrigel (BD Biosciences)-coated flasks using StemPro NSC SFM serum free cell culture medium (Thermo Fisher Scientific) supplemented with 20 ng/ml EGF and 20 ng/ml FGFb, 1% D-glutamine and 1% of penicillin/ streptomycin (further referred as StemPro complete medium).
(§5) GBM cell lines were seeded at 38000 cells/well (SB2b) or 35,000 cells/well (PB1 and WK1) in 96-well matrigel-coated plates and incubated for 24 h at 37 °C, 5% CO2 in humidified incubator in StemPro complete medium. […] Cells were incubated at 37°C for 60 min before ligand addition and detection of Ca^2+ mobilisation in a FlexStation 3 (Molecular Devices).

[12] = tested on: WK1 cell line; assay: Ca2+ mobilization, WK1; format: cell-based, human; settings: Fluo4-AM, FlexStation, 37 °C, pH 7.4, peak RFU, ATP 10 μM, ionomycin 1 μM, representative experiment, 3 replicates
Method: as §4, §5

[13] = tested on: PB1 cell line; assay: Ca2+ mobilization, PB1; format: cell-based, human; settings: Fluo4-AM, FlexStation, 37 °C, pH 7.4, peak RFU, ATP 10 μM, ionomycin 1 μM, representative experiment, 3 replicates
Method: as §4, §5

[14] = tested on: mouse thymic lymphoma models; settings: CTR expressed as an amylin receptor, ref [18], [19]; cited from earlier work
From the text: (§3) Research on the role of CTR expression in cancer has been fragmentary and any role for CTR in cancer pathology seems to be entirely dependent on the cancer type. For instance, in human breast cancer model cell lines with high constitutive ERK (Extracellular Signal Regula ...

[15] = tested on: MDA-MB-231 xenograft tumours; settings: ref [13]; cited from earlier work
From the text: as §3

[16] = tested on: human prostate cancer cell line PC3; settings: ref [14], [15]; cited from earlier work
From the text: as §3

For `CC[C@H](C)[C@H](NC(=O)[C@H](CCC(N)=O)NC(=O)[C@H](Cc1c[nH]cn1)NC(=O)[C@H](C)NC(=O)[C@H](CC(C)C)NC(=O)[C@H](CCCCN)NC(=O)[C@H](CCC(N)=O)NC(=O)[C@@H](NC(=O)[C@@H](NC(=O)[C@@H]1CSSC[C@H](NC(=O)CNC(=O)[C@H](Cc2ccccc2)NC(=O)[C@H](CO)NC(=O)[C@H](CCCNC(=N)N)NC(=O)[C@H](CC(C)C)NC(=O)CNC(=O)[C@H](CCC(N)=O)NC(=O)[C@H](Cc2ccccc2)NC(=O)[C@H](CC(N)=O)NC(=O)[C@H](CC(N)=O)NC(=O)[C@H](CCSC)NC(=O)[C@H](CO)NC(=O)[C@H](CCC(N)=O)NC(=O)[C@H](CCCNC(=N)N)NC(=O)[C@@H](N)Cc2ccc(O)cc2)C(=O)N[C@@H](CCCNC(=N)N)C(=O)N[C@@H](Cc2ccccc2)C(=O)NCC(=O)N[C@@H]([C@@H](C)O)C(=O)N1)[C@@H](C)O)C(C)C)C(=O)N[C@@H](Cc1ccc(O)cc1)C(=O)N[C@@H](CCC(N)=O)C(=O)N[C@@H](Cc1ccccc1)C(=O)N[C@H](C(=O)N[C@@H](CC(=O)O)C(=O)N[C@@H](CCCCN)C(=O)N[C@@H](CC(=O)O)C(=O)N[C@@H](CCCCN)C(=O)N[C@@H](CC(=O)O)C(=O)N[C@@H](CC(N)=O)C(=O)N[C@H](C(=O)N[C@@H](C)C(=O)N1CCC[C@H]1C(=O)N[C@@H](CCCNC(=N)N)C(=O)N[C@@H](CO)C(=O)N[C@@H](CCCCN)C(=O)N[C@H](C(=O)N[C@@H](CO)C(=O)N1CCC[C@H]1C(=O)N[C@@H](CCC(N)=O)C(=O)NCC(=O)N[C@@H](Cc1ccc(O)cc1)C(N)=O)[C@@H](C)CC)C(C)C)[C@@H](C)O` [AM, Adrenomedullin], the “cAMP response to αCGRP, adrenomedullin (and weak amylin response)” value [1] is given as “Weak responses”, the “Peptides rank order of potency (human)” value [2] is given as “sCT ≥ hCT > AMY, αCGRP > AM, intermedin” and the “Peptides rank order of potency (human)” value [3] is given as “sCT ≥ AMY ≥ αCGRP > intermedin ≥ hCT > AM”. The “Peptides rank order of potency (human)” value [4] was “sCT ≥ AMY > αCGRP > intermedin ≥ hCT > AM”, the “Peptides rank order of potency (human)” value [5] was “αCGRP > AM ≥ intermedin > AMY ≥ sCT” and the “Peptides rank order of potency (human)” value [6] was “AM > intermedin > α-CGRP, AMY > sCT”. For the same compound, the “Peptides rank order of potency (human)” value [7] was “AM ≥ intermedin ≥ α-CGRP > AMY > SCT”.

For `CC(C)C[C@H](NC(=O)[C@H](CC(N)=O)NC(=O)[C@H](CC(N)=O)NC(=O)[C@H](CO)NC(=O)[C@H](CO)NC(=O)[C@H](CCCNC(=N)N)NC(=O)[C@@H](NC(=O)[C@H](CC(C)C)NC(=O)[C@H](Cc1ccccc1)NC(=O)[C@H](CC(N)=O)NC(=O)[C@H](C)NC(=O)[C@H](CC(C)C)NC(=O)[C@H](CCCNC(=N)N)NC(=O)[C@H](CCC(N)=O)NC(=O)[C@@H](NC(=O)[C@H](C)NC(=O)[C@@H]1CSSC[C@H](NC(=O)[C@@H](N)CCCCN)C(=O)N[C@@H](CC(N)=O)C(=O)N[C@@H]([C@@H](C)O)C(=O)N[C@@H](C)C(=O)N[C@@H]([C@@H](C)O)C(=O)N1)[C@@H](C)O)C(C)C)C(=O)NCC(=O)N1CCC[C@H]1C(=O)N[C@H](C(=O)N[C@@H](CC(C)C)C(=O)N1CCC[C@H]1C(=O)N1CCC[C@H]1C(=O)N[C@H](C(=O)N[C@@H](CC(N)=O)C(=O)N[C@H](C(=O)NCC(=O)N[C@@H](CO)C(=O)N[C@@H](CC(N)=O)C(=O)N[C@H](C(=O)N[C@@H](Cc1ccc(O)cc1)C(N)=O)[C@@H](C)O)C(C)C)[C@@H](C)O)C(C)C` [amylin, Amylin], the cAMP response [8] was “very weak response”, the cAMP response ([9]; agonist 10^-12-10^-6 M) was “very weak response” and the “pEC50, cAMP accumulation” value ([9]; CTR agonists, 37 °C, S.E.M.) was 5.9 ± 0.5. The cAMP response ([10]; agonist 10^-12-10^-6 M) was “very weak response”, the “pEC50, cAMP accumulation” value ([10]; CTR agonists, 37 °C, S.E.M.) was 6.1 ± 0.5 and the “cAMP response to αCGRP, adrenomedullin (and weak amylin response)” value [1] was “Weak responses”. For the same compound, the “intracellular Ca2+ mobilisation response” value [11] was “unable to detect functional CTR response”, the “intracellular Ca2+ mobilisation response” value ([11]; listed as rAMY) was “Absence of intracellular calcium mobilization response” and the “intracellular Ca2+ mobilisation response” value [12] was “unable to detect functional CTR response”. The “intracellular Ca2+ mobilisation response” value ([12]; listed as rAMY) was “Absence of intracellular calcium mobilization response”, the “intracellular Ca2+ mobilisation response” value [13] was “unable to detect functional CTR response” and the “intracellular Ca2+ mobilisation response” value ([13]; listed as rAMY) was “Absence of intracellular calcium mobilization response”. The metabolic reprogramming [14] was “metabolic reprogramming (switch from glycolysis to oxidative phosphorylation)” and the susceptibility to apoptosis [14] was “increased susceptibility to apoptosis”.

For Amylin, the “Peptides rank order of potency (human)” value [2] is given as “sCT ≥ hCT > AMY, αCGRP > AM, intermedin”, the “Peptides rank order of potency (human)” value [3] is given as “sCT ≥ AMY ≥ αCGRP > intermedin ≥ hCT > AM” and the “Peptides rank order of potency (human)” value [4] is given as “sCT ≥ AMY > αCGRP > intermedin ≥ hCT > AM”. The “Peptides rank order of potency (human)” value [5] was “αCGRP > AM ≥ intermedin > AMY ≥ sCT”, the “Peptides rank order of potency (human)” value [6] was “AM > intermedin > α-CGRP, AMY > sCT” and the “Peptides rank order of potency (human)” value [7] was “AM ≥ intermedin ≥ α-CGRP > AMY > SCT”.

For “Calcitonin (peptide) (CGNLSTCMLGTYTQDFNKFHTFPQTAIGVGAP; ends and bridges not checked; cysteine pairing not given here; UniProt P01258 85-116, looked up) [CT]”, the “growth of xenograft tumours” value [15] is given as “inhibits the growth”, the apoptosis [16] is given as “inhibits apoptosis” and the “tumour growth and invasiveness” value [16] is given as “stimulates tumour growth and invasiveness”.
